From PubChem BioAssay (NCI)
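Five concentrations, 48 hours, 96-well plates. TGI is the concentration that stops growth completely.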

Key:
Experiment in all cases: growth of human tumour cells (NCI), 48 h
M14 melanoma = tested on: M14 melanoma
SF-539 CNS = tested on: SF-539 CNS
OVCAR-3 ovarian = tested on: OVCAR-3 ovarian
SF-268 CNS = tested on: SF-268 CNS
MDA-N = tested on: MDA-N
MDA-MB-231 breast = tested on: MDA-MB-231 breast
MCF7 breast = tested on: MCF7 breast
UACC-62 melanoma = tested on: UACC-62 melanoma
NCI/ADR-RES ovarian = tested on: NCI/ADR-RES ovarian
OVCAR-8 ovarian = tested on: OVCAR-8 ovarian
PC-3 prostate = tested on: PC-3 prostate
NCI-H522 lung = tested on: NCI-H522 lung
NCI-H226 lung = tested on: NCI-H226 lung
HOP-92 NSCLC = tested on: HOP-92 NSCLC
CCRF-CEM leukemia = tested on: CCRF-CEM leukemia
HT29 colon = tested on: HT29 colon
CAKI-1 renal = tested on: CAKI-1 renal
NCI-H23 lung = tested on: NCI-H23 lung
LOX IMVI melanoma = tested on: LOX IMVI melanoma
HCC-2998 colon = tested on: HCC-2998 colon
SK-OV-3 ovarian = tested on: SK-OV-3 ovarian
MALME-3M melanoma = tested on: MALME-3M melanoma
RXF 393 renal = tested on: RXF 393 renal
COLO 205 colon = tested on: COLO 205 colon
A549 NSCLC = tested on: A549 NSCLC
A498 renal = tested on: A498 renal
786-0 renal = tested on: 786-0 renal
IGROV1 ovarian = tested on: IGROV1 ovarian
UACC-257 melanoma = tested on: UACC-257 melanoma
OVCAR-5 ovarian = tested on: OVCAR-5 ovarian
TK-10 renal = tested on: TK-10 renal
KM12 colon = tested on: KM12 colon
SK-MEL-28 melanoma = tested on: SK-MEL-28 melanoma
MDA-MB-435 = tested on: MDA-MB-435
HCT-116 colon = tested on: HCT-116 colon
T-47D breast = tested on: T-47D breast
SN12C renal = tested on: SN12C renal
SNB-75 CNS = tested on: SNB-75 CNS
BT-549 breast = tested on: BT-549 breast
EKVX NSCLC = tested on: EKVX NSCLC
DU-145 prostate = tested on: DU-145 prostate
HCT-15 colon = tested on: HCT-15 colon
SF-295 CNS = tested on: SF-295 CNS
OVCAR-4 ovarian = tested on: OVCAR-4 ovarian
MOLT-4 leukemia = tested on: MOLT-4 leukemia
UO-31 renal = tested on: UO-31 renal
K-562 leukemia = tested on: K-562 leukemia
ACHN renal = tested on: ACHN renal
U251 CNS = tested on: U251 CNS
NCI-H460 lung = tested on: NCI-H460 lung
SW-620 colon = tested on: SW-620 colon
HOP-62 NSCLC = tested on: HOP-62 NSCLC
SNB-19 CNS = tested on: SNB-19 CNS
SK-MEL-2 melanoma = tested on: SK-MEL-2 melanoma
RPMI-8226 leukemia = tested on: RPMI-8226 leukemia
HL-60(TB) leukemia = tested on: HL-60(TB) leukemia
SK-MEL-5 melanoma = tested on: SK-MEL-5 melanoma
HS 578T breast = tested on: HS 578T breast

Measured: TGI

COc1ccc(S(=O)Cc2cc(OC)ccc2OC)cc1 (stereo not drawn)
> 100 µM: M14 melanoma | SF-539 CNS | OVCAR-3 ovarian | SF-268 CNS | MDA-N | MDA-MB-231 breast | MCF7 breast | UACC-62 melanoma | NCI/ADR-RES ovarian | OVCAR-8 ovarian | PC-3 prostate | NCI-H522 lung | NCI-H226 lung | HOP-92 NSCLC | CCRF-CEM leukemia | HT29 colon | CAKI-1 renal | NCI-H23 lung | LOX IMVI melanoma | HCC-2998 colon | SK-OV-3 ovarian | MALME-3M melanoma | RXF 393 renal | COLO 205 colon | A549 NSCLC | A498 renal | 786-0 renal | IGROV1 ovarian | UACC-257 melanoma | OVCAR-5 ovarian | TK-10 renal | KM12 colon | SK-MEL-28 melanoma | MDA-MB-435 | HCT-116 colon | T-47D breast | SN12C renal | SNB-75 CNS | BT-549 breast | EKVX NSCLC | DU-145 prostate | HCT-15 colon | SF-295 CNS | OVCAR-4 ovarian | MOLT-4 leukemia | UO-31 renal | K-562 leukemia | ACHN renal | U251 CNS | NCI-H460 lung | SW-620 colon | HOP-62 NSCLC | SNB-19 CNS

COc1ccc(/C=N/n2c(C)n[nH]c2=O)cc1
> 100 µM: M14 melanoma | SF-539 CNS | SK-MEL-2 melanoma | OVCAR-3 ovarian | SF-268 CNS | MDA-N | MDA-MB-231 breast | MCF7 breast | UACC-62 melanoma | NCI/ADR-RES ovarian | OVCAR-8 ovarian | PC-3 prostate | NCI-H226 lung | CCRF-CEM leukemia | HT29 colon | CAKI-1 renal | NCI-H23 lung | HCC-2998 colon | SK-OV-3 ovarian | MALME-3M melanoma | COLO 205 colon | A549 NSCLC | A498 renal | 786-0 renal | UACC-257 melanoma | OVCAR-5 ovarian | KM12 colon | SK-MEL-28 melanoma | MDA-MB-435 | HCT-116 colon | T-47D breast | SN12C renal | SNB-75 CNS | BT-549 breast | EKVX NSCLC | DU-145 prostate | HCT-15 colon | SF-295 CNS | OVCAR-4 ovarian | MOLT-4 leukemia | UO-31 renal | K-562 leukemia | ACHN renal | U251 CNS | NCI-H460 lung | SW-620 colon | HOP-62 NSCLC | RPMI-8226 leukemia | SNB-19 CNS

Cc1cc2c(cc1Cl)Sc1nnc(C)n1S2(=O)=O
24.1 µM: HOP-92 NSCLC | UO-31 renal
30.8 µM: M14 melanoma
56.9 µM: TK-10 renal
34.3 µM: SN12C renal | EKVX NSCLC
26.6 µM: MDA-MB-435
27.2 µM: OVCAR-4 ovarian
30.1 µM: NCI-H23 lung
37 µM: PC-3 prostate
48.8 µM: OVCAR-8 ovarian
30.6 µM: UACC-62 melanoma
86.5 µM: SNB-19 CNS
33.9 µM: HCC-2998 colon
47.5 µM: SNB-75 CNS
47.4 µM: RXF 393 renal
65 µM: DU-145 prostate
78.5 µM: NCI-H460 lung
> 100 µM: NCI-H226 lung
30.7 µM: COLO 205 colon
30.5 µM: UACC-257 melanoma
28.3 µM: T-47D breast
34.1 µM: CCRF-CEM leukemia
35.4 µM: K-562 leukemia
23.6 µM: LOX IMVI melanoma
29.7 µM: MDA-N | BT-549 breast
97.7 µM: OVCAR-5 ovarian
45.8 µM: HT29 colon
29.1 µM: IGROV1 ovarian
27.7 µM: ACHN renal
29.6 µM: OVCAR-3 ovarian
42.4 µM: SF-268 CNS
27 µM: SK-MEL-5 melanoma
31.5 µM: SK-MEL-28 melanoma
75.2 µM: SK-OV-3 ovarian
34.7 µM: MOLT-4 leukemia
45.4 µM: HCT-116 colon
42.8 µM: U251 CNS
69.8 µM: NCI/ADR-RES ovarian
79.7 µM: HS 578T breast
23.4 µM: NCI-H522 lung
44.5 µM: 786-0 renal
40.2 µM: A498 renal
33.8 µM: SF-295 CNS
18.1 µM: MCF7 breast
57.9 µM: HOP-62 NSCLC
30.9 µM: KM12 colon
25.5 µM: HCT-15 colon
36.4 µM: SF-539 CNS
35 µM: SW-620 colon
22.8 µM: MALME-3M melanoma
29.9 µM: CAKI-1 renal
31.4 µM: MDA-MB-231 breast
24.4 µM: HL-60(TB) leukemia
97.2 µM: A549 NSCLC

FC(F)(F)C1(C(F)(F)F)OC(Cl)(Cl)C(Cl)(Cl)O1
> 10 µM: M14 melanoma | SF-539 CNS | SK-MEL-2 melanoma | OVCAR-3 ovarian | SF-268 CNS | MDA-N | MDA-MB-231 breast | MCF7 breast | UACC-62 melanoma | NCI/ADR-RES ovarian | OVCAR-8 ovarian | PC-3 prostate | NCI-H522 lung | NCI-H226 lung | HOP-92 NSCLC | HT29 colon | CAKI-1 renal | NCI-H23 lung | LOX IMVI melanoma | HCC-2998 colon | SK-OV-3 ovarian | MALME-3M melanoma | RXF 393 renal | COLO 205 colon | A549 NSCLC | A498 renal | SK-MEL-5 melanoma | 786-0 renal | IGROV1 ovarian | UACC-257 melanoma | OVCAR-5 ovarian | TK-10 renal | KM12 colon | SK-MEL-28 melanoma | MDA-MB-435 | HCT-116 colon | T-47D breast | BT-549 breast | EKVX NSCLC | DU-145 prostate | HCT-15 colon | SF-295 CNS | OVCAR-4 ovarian | HS 578T breast | ACHN renal | U251 CNS | NCI-H460 lung | SW-620 colon | HOP-62 NSCLC | SNB-19 CNS
